# According to EP1276722B1, “NAPHTHAMIDINE UROKINASE INHIBITORS” (ABBOTT LABORATORIES, priority 2000, dated 2001):
# Molecular target: T1, urokinase enzyme Abbokinase (Homo sapiens, UniProt P00749)
# T1 construct: purchased Abbott Laboratories, Abbott Park, IL
# Assay: Inhibition of urokinase on chromogenic substrate S-2444
# Type: biochemical
# Conditions: read-out: Ki
# Method: Four concentrations were chosen, then 5 µl of each were diluted to a total assay volume of 200 µL. […] Several vials were reconstituted as directed on the vial, aliquoted, and stored frozen The enzyme was further diluted in assay buffer and 10 µL was used in the assay. Enzyme concentration in the assay was 2-3 nM. The assay was performed as follows: 175 µL of buffer was pipetted inta the polystyrene plate, and 5 µL solution of a compound of this invention in DMSO was added. The mixture was vortexed, treated with 10 µL of enzyme in buffer, vortexed, treated with 10 µL of substrate in water, and vortexed. […] The Spectromax® calculated the reaction rates which were used to calculate percent inhibition of the compounds of this invention versus the reaction rate of the enzyme in the absence of any inhibitor. The Ki's of the inhibitors were calculated from the percent inhibition and previously established Km.
row,Compound,Ki [nM]
1,"CC(C)c1nccc2ccc(C3CC3c3ccc4cc(C(=N)N)ccc4c3)cc12 (centres unmarked) [Example 2, 6-(2-(1-isopropyl-7-isoquinolinyl)cyclopropyl)-2-naphthalenecarboximidamide]",480
2,"CC(C)C1c2cc(C=Cc3ccc4cc(C(=N)N)ccc4c3)ccc2CCN1C (centres unmarked) [Example 16, 6-(2-(1-isopropyl-2-methyl-1,2,3,4-tetrahydro-7-isoquinolinyl)ethenyl)-2-naphthalenecarboximidamide]",120
3,"CCN1CCc2ccc(C3CC3c3ccc4cc(C(=N)N)ccc4c3)cc2C1C(C)C (centres unmarked) [Example 24, 6-(2-(2-ethyl-1-isopropyl-1,2,3,4-tetrahydro-7-isoquinolinyl)cyclopropyl)-2-naphthalenecarboximidamide]",54
4,"CC(C)C1NCCc2ccc(C3CC3c3ccc4cc(C(=N)N)ccc4c3)cc21 (centres unmarked) [Example 20, 6-(2-(1-isopropyl-1,2,3,4-tetrahydro-7-isoquinolinyl)cyclopropyl)-2-naphthalenecarboximidamide]",84
5,"COCC=Cc1cc(C2CC2c2ccc3c(c2)C(C(C)C)=NCC3)cc2ccc(C(=N)N)cc12 (centres unmarked) [Example 4, 6-(2-(1-isopropyl-3,4-dihydro-7-isoquinolinyl)cyclopropyl)-8-(3-methoxy-1-propenyl)-2-naphthalenecarboximidamide]",59
6,"CC(C)C1c2cc(C3CC3c3ccc4cc(C(=N)N)ccc4c3)ccc2CCN1CC1CC1 (centres unmarked) [Example 23, 6-(2-(2-(cyclopropylmethyl)-1-isopropyl-1,2,3,4-tetrahydro-7-isoquinolinyl)cyclopropyl)-2-naphthalenecarboximidamide]",58
7,"CC(C)C1c2cc(C3CC3c3ccc4cc(C(=N)N)ccc4c3)ccc2CCN1CC(F)(F)F (centres unmarked) [Example 33, 6-(2-(1-isopropyl-2-(2,2,2-trifluoroethyl)-1,2,3,4-tetrahydro-7-isoquinolinyl)cyclopropyl)-2-naphthalenecarboximidamide]",1440
8,"CC(C)C1c2cc(C3CC3c3ccc4cc(C(=N)N)ccc4c3)ccc2CCN1Cc1cccnc1 (centres unmarked) [Example 21, 6-(2-(1-isopropyl-2-(3-pyridinylmethyl)-1,2,3,4-tetrahydro-7-isoquinolinyl)cyclopropyl)-2-naphthalenecarboximidamide]",84
9,"CC(C)C1NCCc2ccc(C=Cc3ccc4cc(C(=N)N)ccc4c3)cc21 (centres unmarked) [Example 13, 6-(2-(1-isopropyl-1,2,3,4-tetrahydro-7-isoquinolinyl)ethenyl)-2-naphthalenecarboximidamide]",260
10,"CC1c2cc(C3CC3c3ccc4cc(C(=N)N)ccc4c3)ccc2CCN1C (centres unmarked) [Example 30, 6-(2-(1,2-dimethyl-1,2,3,4-tetrahydro-7-isoquinolinyl)cyclopropyl)-2-naphthalenecarboximidamide]",278
11,"CC(C)C1=NCCc2ccc(C3CC3c3cc(/C=C/C(C)(C)C)c4cc(C(=N)N)ccc4c3)cc21 (centres unmarked) [Example 34, 8-((1E)-3,3-dimethyl-1-butenyl)-6-(2-(1-isopropyl-3,4-dihydro-7-isoquinolinyl)cyclopropyl)-2-naphthalenecarboximidamide]",51
12,"N=C(N)c1ccc2cc(C3CC3c3ccc4c(c3)C(C3CCCCC3)=NCC4)ccc2c1 (centres unmarked) [Example 9, 6-(2-(1-cyclohexyl-3,4-dihydro-7-isoquinolinyl)cyclopropyl)-2-naphthalenecarboximidamide]",50
13,"CC(C)C1=NCCc2ccc(C3CC3c3cc(-c4ccoc4)c4cc(C(=N)N)ccc4c3)cc21 (centres unmarked) [Example 1, 8-(3-furyl)-6-(2-(1-isopropyl-3,4-dihydro-7-isoquinolinyl)cyclopropyl)-2-naphthalenecarboximidamide]",41
14,"N=C(N)c1ccc2cc(C3CC3c3ccc4c(c3)C(c3ccccc3)=NCC4)ccc2c1 (centres unmarked) [Example 10, 6-(2-(1-phenyl-3,4-dihydro-7-isoquinolinyl)cyclopropyl)-2-naphthalenecarboximidamide]",142
15,"CC(C)C1c2cc(C3CC3c3ccc4cc(C(=N)N)ccc4c3)ccc2CCN1CCO (centres unmarked) [Example 26, 6-(2-(2-(2-hydroxyethyl)-1-isopropyl-1,2,3,4-tetrahydro-7-isoquinolinyl)cyclopropyl)-2-naphthalenecarboximidamide]",48
16,"CCC1(CC)CN(C)C(C(C)C)c2ccc(C3CC3c3ccc4cc(C(=N)N)ccc4c3)cc21 (centres unmarked) [Example 32, 6-(2-(4,4-diethyl-1-isopropyl-2-methyl-1,2,3,4-tetrahydro-6-isoquinolinyl)cyclopropyl)-2-naphthalenecarboximidamide]",350

# Next, values leading:
row,Ki [nM],Compound
1,10,"CC(C)/C=C/c1cc(C2CC2c2ccc3c(c2)C(C(C)C)N(C)CC3)cc2ccc(C(=N)N)cc12 (centres unmarked) [Example 37, 6-(2-(1-isopropyl-2-methyl-1,2,3,4-tetrahydro-7-isoquinolinyl)cyclopropyl)-8-((1E)-3-methyl-1-butenyl)-2-naphthalenecarboximidamide]"
2,40,"C=C(C)/C=C/c1cc(C2CC2c2ccc3c(c2)C(C(C)C)N(C)CC3)cc2ccc(C(=N)N)cc12 (centres unmarked) [Example 38, 6-(2-(1-isopropyl-2-methyl-1,2,3,4-tetrahydro-7-isoquinolinyl)cyclopropyl)-8-((1E)-3-methyl-1,3-butadienyl)-2-naphthalenecarboximidamide]"
3,29,"CCC1CNCc2ccc(C3CC3c3ccc4cc(C(=N)N)ccc4c3)cc21 (centres unmarked) [Example 48, 6-(2-(4-ethyl-1,2,3,4-tetrahydro-6-isoquinolinyl)cyclopropyl)-2-naphthalenecarboximidamide]"
4,14,"C=Cc1cc(C2CC2c2ccc3c(c2)C(C(C)C)N(C)CC3)cc2ccc(C(=N)N)cc12 (centres unmarked) [Example 41, 6-(2-(1-isopropyl-2-methyl-1,2,3,4-tetrahydro-7-isoquinolinyl)cyclopropyl)-8-vinyl-2-naphthalenecarboximidamide]"
5,18,"N=C(N)c1ccc2cc(C3CC3c3ccc4c(c3)C(C3CCCCC3)=NCC4)cc(Br)c2c1 (centres unmarked) [Example 56, 8-bromo-6-(2-(1-cyclohexyl-3,4-dihydro-7-isoquinolinyl)cyclopropyl)-2-naphthalenecarboximidamide]"
6,255,"CCC1CN=C(C(C)C)c2ccc(C=Cc3ccc4cc(C(=N)N)ccc4c3)cc21 (centres unmarked) [Example 55, 6-(2-(4-ethyl-1-isopropyl-3,4-dihydro-6-isoquinolinyl)ethenyl)-2-naphthalenecarboximidamide]"
7,278,"CCC1CN(Cc2ccccc2)Cc2ccc(C3CC3c3ccc4cc(C(=N)N)ccc4c3)cc21 (centres unmarked) [Example 49, 6-(2-(2-benzyl-4-ethyl-1,2,3,4-tetrahydro-6-isoquinolinyl)cyclopropyl)-2-naphthalenecarboximidamide]"
8,37,"CC(C)C1c2cc(C3CC3c3cc(C4CC4)c4cc(C(=N)N)ccc4c3)ccc2CCN1C (centres unmarked) [Example 39, 8-cyclopropyl-6-(2-(1-isopropyl-2-methyl-1,2,3,4-tetrahydro-7-isoquinolinyl)cyclopropyl)-2-naphthalenecarboximidamide]"
9,43,"CCC1CNCc2ccc(C=Cc3ccc4cc(C(=N)N)ccc4c3)cc21 (centres unmarked) [Example 50, 6-(2-(4-ethyl-1,2,3,4-tetrahydro-6-isoquinolinyl)ethenyl)-2-naphthalenecarboximidamide]"
10,54,"CC(C)C1c2cc(C3CC3c3cc(Br)c4cc(C(=N)N)ccc4c3)ccc2CCN1C (centres unmarked) [Example 36, 8-bromo-6-(2-(1-isopropyl-2-methyl-1,2,3,4-tetrahydro-7-isoquinolinyl)cyclopropyl)-2-naphthalenecarboximidamide]"
